PubChem BioAssay (NCI)
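Interpolation was linear, between the two tested concentrations surrounding the appropriate level; five concentrations were tested over 48 hours in 96-well plates. GI50: concentration for 50% inhibition of growth. TGI: concentration producing complete growth inhibition.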

Key:
Experiment in all cases: DTP human tumour cell line panel, 48 h
786-0 renal = test system: 786-0 renal
CAKI-1 renal = test system: CAKI-1 renal
HCT-116 colon = test system: HCT-116 colon
M14 melanoma = test system: M14 melanoma
MOLT-4 leukemia = test system: MOLT-4 leukemia
NCI-H460 lung = test system: NCI-H460 lung
SK-MEL-2 melanoma = test system: SK-MEL-2 melanoma
SN12C renal = test system: SN12C renal
U251 CNS = test system: U251 CNS
RXF 393 renal = test system: RXF 393 renal

| Compound | TGI (786-0 renal) | TGI (CAKI-1 renal) | TGI (HCT-116 colon) | TGI (M14 melanoma) | TGI (MOLT-4 leukemia) | TGI (NCI-H460 lung) | TGI (SK-MEL-2 melanoma) | TGI (SN12C renal) | TGI (U251 CNS) | TGI (RXF 393 renal) | GI50 (786-0 renal) | GI50 (CAKI-1 renal) | GI50 (HCT-116 colon) | GI50 (M14 melanoma) | GI50 (NCI-H460 lung) | GI50 (RXF 393 renal) | GI50 (SK-MEL-2 melanoma) | GI50 (SN12C renal) | GI50 (U251 CNS) | GI50 (MOLT-4 leukemia) |
| --- | --- | --- | --- | --- | --- | --- | --- | --- | --- | --- | --- | --- | --- | --- | --- | --- | --- | --- | --- | --- |
| Cc1c2ccncc2c(C)c2c1[nH]c1ccc(O)c(OCC(F)(F)F)c12 | 5.78 µM | 19.6 µM | 9.11 µM | 19.7 µM | 6.04 µM | 10.5 µM | 22.9 µM | 20.8 µM | 10.7 µM |  |  |  |  |  |  |  |  |  |  |  |
| Cc1ccc(C)c(N2C(=O)C(=O)C(c3nc4ccccc4s3)C(=Nc3cccc4c(=O)[nH][nH]c(=O)c34)C2=O)c1 (stereo not given) | > 100 µM | > 100 µM | > 100 µM | > 100 µM | > 100 µM | > 100 µM | > 100 µM | > 100 µM | > 100 µM |  |  |  |  |  |  |  |  |  |  |  |
| O=c1[nH]c2cc([N+](=O)[O-])ccc2nc1/C(=N\Nc1ccccc1)C(O)c1ccc2c(c1)OCO2 (stereo not given) | > 100 µM |  | > 100 µM | > 100 µM | > 100 µM | > 100 µM | > 100 µM | > 100 µM | > 100 µM | > 100 µM |  |  |  |  |  |  |  |  |  |  |
| Cc1cccc(C)c1N1C(=O)C(=O)C(c2nc3ccccc3s2)C(=Nc2cccc3c(=O)[nH][nH]c(=O)c23)C1=O (stereo not given) | > 100 µM | > 100 µM | > 100 µM | > 100 µM | > 100 µM | > 100 µM | > 100 µM | > 100 µM | > 100 µM |  |  |  |  |  |  |  |  |  |  |  |
| Cc1cccc(N(CC(=O)O)S(=O)(=O)c2ccccc2)c1 | > 100 µM | > 100 µM |  | > 100 µM | > 100 µM | > 100 µM | > 100 µM | > 100 µM | > 100 µM | > 100 µM |  |  |  |  |  |  |  |  |  |  |
| C=CCNC(=O)N(CCC)CCCC(NC(C)=O)C(=O)NCc1ccccc1 (stereo not given) | > 100 µM | > 100 µM |  | > 100 µM | > 100 µM | > 100 µM | > 100 µM | > 100 µM | > 100 µM | > 100 µM |  |  |  |  |  |  |  |  |  |  |
| O=S1CSSC1 | 47 µM | 77.4 µM | 31.7 µM | 55.8 µM | 43.1 µM |  | 33.9 µM | 24.4 µM | 37.5 µM | 35.2 µM |  |  |  |  |  |  |  |  |  |  |
| c1ccc(-c2nc(N3CCCNCC3)c3nc(-c4ccccc4)oc3n2)cc1 | 3.45 µM | 3.02 µM | 3.35 µM | 3.4 µM |  | 3.54 µM | 3.49 µM | 3.38 µM | 3.31 µM | 3.29 µM | 1.73 µM | 1.52 µM | 1.65 µM | 1.79 µM | 1.86 µM | 1.66 µM | 1.83 µM | 1.74 µM | 1.74 µM |  |
| COc1ccc(-c2cnoc2-c2cc(OC)c3c(c2)OCCO3)cc1 | > 56.5 µM | > 100 µM | > 37 µM | > 46.8 µM | > 100 µM | 12.8 µM | 16.2 µM | > 94.3 µM | > 100 µM |  | 0.0629 µM | 0.0409 µM | 0.0396 µM | 0.0274 µM | 0.0327 µM |  | 0.0279 µM | 0.402 µM | 0.0521 µM | 0.0638 µM |
| COc1cc(CNc2nc3ccc(C(F)(F)F)cc3nc2-c2ccccc2)cc(OC)c1OC | > 100 µM | > 100 µM | > 100 µM | > 100 µM | 56.8 µM | > 100 µM | > 100 µM | > 100 µM | > 100 µM |  |  |  |  |  |  |  |  |  |  |  |
| N.N.N.N.N.O=S(=O)([O-])S(=O)(=O)[O-].[Co+3] | > 100 µM |  | > 100 µM | > 100 µM | > 100 µM | > 100 µM | > 100 µM | > 100 µM | > 100 µM |  | > 100 µM |  | > 100 µM | > 100 µM | > 100 µM |  | > 100 µM | > 100 µM | > 100 µM | > 100 µM |
| O=[N+]([O-])c1ccc(-c2cc3c(Nc4ccc(Cl)c(C(F)(F)F)c4)ncnc3s2)cc1 | > 20.6 µM | 8.32 µM | > 100 µM | > 100 µM |  | > 100 µM | 6.42 µM | > 100 µM | > 87.8 µM | 6.19 µM | 1.1 µM | 2.22 µM | 1.51 µM | 2.86 µM | 0.774 µM | 1.79 µM | 2.4 µM | 1.16 µM | 1.38 µM |  |
| CC1c2ccccc2N=C2SC(=S)N3CCN=C3N21 (stereo not given) | > 100 µM | > 100 µM | > 100 µM | > 100 µM | > 100 µM | > 100 µM |  | > 100 µM | > 100 µM | > 100 µM | > 100 µM | > 100 µM | > 100 µM | > 100 µM | > 100 µM | > 100 µM |  | > 100 µM | > 100 µM | > 100 µM |
| O=C1/C(=C/c2cccc([N+](=O)[O-])c2)Sc2scc(-c3ccc([N+](=O)[O-])cc3)[n+]21 | 38.3 µM | 51.5 µM | 34.9 µM | > 100 µM | > 100 µM | 24.6 µM | 70 µM | 40.9 µM | > 100 µM |  |  |  |  |  |  |  |  |  |  |  |
| CCOC(=O)C1(Cc2ccc3ccccc3c2)CCCCC(=O)N1 (stereo not given) | > 100 µM | > 100 µM |  | > 100 µM | > 100 µM | > 100 µM |  | > 100 µM | > 100 µM | > 100 µM |  |  |  |  |  |  |  |  |  |  |
| CC1=NN(C(=O)c2ccncc2)C(=O)C1N=Nc1ccc(F)cc1 (stereo not given) | > 100 µM | > 100 µM | > 100 µM | > 100 µM |  | > 100 µM | > 100 µM | > 100 µM |  | > 100 µM |  |  |  |  |  |  |  |  |  |  |
| N#Cc1c(-c2ccco2)cc(-c2ccccc2)[nH]c1=O | > 100 µM |  | > 100 µM | > 100 µM | > 100 µM | > 100 µM |  | > 100 µM | > 100 µM | > 100 µM |  |  |  |  |  |  |  |  |  |  |
| C[C@]12C/C(=C/O)C(=O)C(O)=C1CC[C@@H]1C2CC[C@@]2(C)C1CC[C@@H]2O (stereo not given in full) | 87.5 µM | 76.6 µM |  | 38.1 µM | 66.5 µM | 48.1 µM | 55.4 µM | 61.1 µM |  | 36.3 µM |  |  |  |  |  |  |  |  |  |  |
| COc1c(O)c(OC)c2oc(-c3ccc(O)cc3)c(OC)c(=O)c2c1O | 86.3 µM | > 100 µM | > 100 µM | > 100 µM | > 100 µM | > 100 µM | > 100 µM | > 100 µM | > 100 µM |  |  |  |  |  |  |  |  |  |  |  |
